The source of these data is patent publication US20190382850A1, “METHOD FOR IDENTIFYING MITOCHONDRIAL DNA IN EXTRACELLULAR VESICLES AND TREATMENT OF MTDNA-RELATED DISORDERS AND CANCER” (Memorial Sloan-Kettering Cancer Center, priority 2017, published 2019).

Assay [1] concerns mitochondrial complex protein. The experiment in a line: Western blot of OXPHOS protein cocktail in HT-treated cells. It is filed as cell-based, human. Particulars: fulvestrant; FIG. 11d. The source says: (§1) (Panel a), Representative bright field images of MCF7 po cells±CAF-EVs (3×10^9/weekly for 40 days). Bar graph of number of MS is also reported at the endpoint of the experiment (40 days). (Panel b), HT led to decreased expression of mRNA involved in protein synthesis and OXPHOS signaling with z score and -log (p-values)- as determined by Ingenuity analysis of microarray data from RNA isolated FIG. 5a (MCF7), single P values are also reported. (Panel c), OXPHOS potential determined as changes of respiration rate under mitochondrial stressors by seahorse technology (oligomycin 1 μM, rotenone 100 nM) in cancer cells isolated from FIG. 5b (MCF7, PT1). […] (Panel e), Mitochondrial Complex I/IV activity quantification as determined by nmol/min/mg of protein in luminal breast cancer cell lines from panel a. […]
For immunoblotting assays, cells were lysed in buffer (50 mmol/L Tris at pH 7.5, 150 mmol/L NaCl, 5 μg/mL aprotinin, pepstatin, 1% NP-40, lmmol/L EDTA, 0.25% deoxycholate, and protease inhibitor cocktail tablet, Sigma). […] The enrichment of CAFs in xenografts was determined by desmin immunohistochemistry (IHC) in tumor-derived sections. […] Viable cells were determined 7-14 days after treatment using trypan blue and cell counting using bright field microscopy or DAPI exclusion staining by flow cytometry (Dako Cytomation). […]
(In western blotting, separated proteins are transferred to a membrane and probed.)

Assay [2] has as its system ER+ tumor-derived cells and cell lines. Briefly: OXPHOS potential (Seahorse) in HT-treated cancer cells. It is filed as cell-based, human. The conditions noted are these: fulvestrant; FIG. 11c.
From the text: as §1
Mitochondrial respiration and OXPHOS potential in cells was assessed using Seahorse technology (www.seahorsebio.com)(Qian, W. & Van Houten, B. Alterations in bioenergetics due to changes in mitochondrial DNA copy number. Methods 51, 452-457 (2010)). Oxygen consumption rate (OCR), extracellular acidification rate and glycolytic potential were determined using the Seahorse extracellular flux analyzer (XF-96, XF-24 Seahorse Bioscience). […] Furthermore OXPHOS potential was determined by measuring the area of the progress curve after the addition of glucose and rotenone/oligomycin.

For `C[C@]12CC[C@@H]3c4ccc(O)cc4C[C@@H](CCCCCCCCC[S+]([O-])CCCC(F)(F)C(F)(F)F)[C@H]3[C@@H]1CC[C@@H]2O` (some centres unmarked) [fulvestrant], the “mitochondrial complex protein expression in cells treated with HT” value in assay [1] is recorded as “reduced”. For the same molecule, in assay [2], the “OXPHOS potential in cells treated with HT” value is “reduced”.
